Consider 7 compounds from PubChem BioAssay (NCI).

Among the test systems are CCRF-CEM leukemia; COLO 205 colon; HOP-92 NSCLC; KM12 colon; M14 melanoma; MCF7 breast; NCI-H460 lung; NCI-H522 lung; T-47D breast; UACC-257 melanoma.
Test in all cases: NCI-60 cell line screen, 48 h

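Interpolation was linear, between the two tested concentrations surrounding the appropriate level; five concentrations were tested over 48 hours in 96-well plates. The concentration for 50% growth inhibition is given as GI50. The concentration for full growth arrest is given as TGI.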

For `N#CC1=C(N)Oc2c(sc3c(Br)cccc23)C1c1ccc(Br)cc1` (stereo not given), the GI50 is 0.496 µM in the assay with CCRF-CEM leukemia; 0.406 µM in the assay on COLO 205 colon; 1.43 µM in the assay on HOP-92 NSCLC; 0.434 µM in the assay on KM12 colon; 0.515 µM in the assay with M14 melanoma; 0.382 µM in the assay on MCF7 breast. For the same compound, the GI50 is 0.668 µM in the assay on NCI-H460 lung, 0.088 µM with NCI-H522 lung, 0.397 µM in the assay with T-47D breast and 1.19 µM in the assay on UACC-257 melanoma. The TGI with CCRF-CEM leukemia was found to be 13.6 µM; in the assay with COLO 205 colon, 1.88 µM; in the assay with HOP-92 NSCLC, 5.56 µM; in the assay on KM12 colon, 10.2 µM; in the assay with M14 melanoma, 3.5 µM; with MCF7 breast, 12.4 µM. Also, the TGI in the assay with NCI-H460 lung amounted to 4.51 µM; in the assay on NCI-H522 lung it was 0.534 µM; in the assay on T-47D breast, 4.67 µM; with UACC-257 melanoma it was 15.4 µM.

On to `COc1cc(Cl)cc(-c2nn(-c3cccc(NC(=O)Nc4cc(C(F)(F)F)cc(C(F)(F)F)c4)c3)cc2-c2ccncc2)c1`, for which the GI50 in the assay on CCRF-CEM leukemia is 0.312 µM; in the assay with COLO 205 colon, 0.528 µM; in the assay on HOP-92 NSCLC, 0.228 µM; in the assay on KM12 colon, 0.447 µM; in the assay with M14 melanoma, 0.481 µM; with MCF7 breast, 0.439 µM. For the same compound, the GI50 in the assay on NCI-H460 lung was 0.374 µM; with NCI-H522 lung, 0.302 µM; with T-47D breast it was 0.476 µM; in the assay on UACC-257 melanoma it was 0.686 µM. For the same compound, the TGI worked out at 1.52 µM with CCRF-CEM leukemia; 1.97 µM with COLO 205 colon; 0.783 µM in the assay with HOP-92 NSCLC; 2.77 µM with KM12 colon; 2.3 µM with M14 melanoma; 9.3 µM in the assay with MCF7 breast. The TGI stood at 1.71 µM in the assay with NCI-H460 lung, 1.32 µM in the assay on NCI-H522 lung, 6.27 µM in the assay with T-47D breast and 2.68 µM with UACC-257 melanoma.

For `Cc1cc(NCc2cc(Nc3ccnc4cc(Cl)ccc34)ccc2F)nc(N2CCN(C)CC2)n1`, the GI50 was 1.12 µM with CCRF-CEM leukemia; 1.72 µM in the assay with COLO 205 colon; 1.35 µM in the assay with HOP-92 NSCLC; 2.11 µM in the assay on KM12 colon; 1.56 µM in the assay with M14 melanoma; 1.94 µM with MCF7 breast. The GI50 with NCI-H460 lung is 1.5 µM; in the assay with NCI-H522 lung it was 2.22 µM; with T-47D breast, 2.1 µM; in the assay on UACC-257 melanoma, 1.87 µM. Further, the TGI in the assay with CCRF-CEM leukemia was 7.6 µM; with COLO 205 colon, 3.66 µM; in the assay on HOP-92 NSCLC, 3.52 µM; in the assay on KM12 colon, 6.5 µM; in the assay on M14 melanoma, 3.13 µM; in the assay with MCF7 breast, 5.65 µM. Besides, the TGI turned out to be 3.31 µM in the assay with NCI-H460 lung, 4.79 µM in the assay with NCI-H522 lung, 6.13 µM with T-47D breast and 3.68 µM with UACC-257 melanoma.

Consider `Cc1cc(=O)[nH]c2cc3c(c4c(n3Cc3ccc(Cl)cc3Cl)CC(C)(C)CC4=O)c(O)c12`, for which the GI50 was 82.3 µM in the assay with CCRF-CEM leukemia; over 100 µM in the assay with COLO 205 colon; 54.2 µM in the assay with HOP-92 NSCLC; over 100 µM with KM12 colon; 71.3 µM with M14 melanoma; over 100 µM with MCF7 breast. Moreover, the GI50 in the assay on NCI-H460 lung is 79.5 µM; in the assay with NCI-H522 lung it was over 100 µM; in the assay on T-47D breast it was over 100 µM; with UACC-257 melanoma, over 100 µM. Also, the TGI in the assay on CCRF-CEM leukemia, with COLO 205 colon, in the assay with HOP-92 NSCLC, with KM12 colon, in the assay on M14 melanoma and in the assay with MCF7 breast was over 100 µM throughout. In addition, the TGI in the assay with NCI-H460 lung, in the assay with NCI-H522 lung, with T-47D breast and in the assay on UACC-257 melanoma was over 100 µM throughout.

For the compound `COC(=O)C1=C(C(=O)OC)SC(=C(Cl)C(=S)Nc2ccccc2O)S1`, the GI50 was over 50 µM in the assay with CCRF-CEM leukemia; 16.2 µM with COLO 205 colon; 40 µM in the assay with HOP-92 NSCLC; 0.132 µM with KM12 colon; 0.352 µM in the assay with M14 melanoma; 8.57 µM in the assay with MCF7 breast. Further, the GI50 with NCI-H460 lung was 11.5 µM; in the assay on NCI-H522 lung, 10.3 µM; in the assay with T-47D breast, 17 µM; with UACC-257 melanoma it was 12.4 µM. Further, the TGI is over 50 µM in the assay with CCRF-CEM leukemia; over 50 µM with COLO 205 colon; over 50 µM in the assay on HOP-92 NSCLC; over 50 µM in the assay with KM12 colon; 12.7 µM with M14 melanoma; 25.7 µM with MCF7 breast. Besides, the TGI in the assay with NCI-H460 lung was over 50 µM; in the assay with NCI-H522 lung, 23.3 µM; in the assay on T-47D breast it was over 50 µM; with UACC-257 melanoma it was 26.3 µM.

For `O=C1C=CC[C@H](/C=C/c2ccccc2)O1`, the GI50 with CCRF-CEM leukemia was 9.5 µM; in the assay on COLO 205 colon, 2.03 µM; in the assay with HOP-92 NSCLC it was 1.19 µM; with KM12 colon, 4.06 µM; with M14 melanoma, 5.85 µM; with MCF7 breast it was 1.65 µM. Moreover, the GI50 in the assay with NCI-H460 lung was 1.53 µM; in the assay on NCI-H522 lung, 2.72 µM; in the assay on T-47D breast, 6.29 µM; with UACC-257 melanoma, 9.81 µM. The TGI is over 50.2 µM in the assay on CCRF-CEM leukemia; 20.2 µM in the assay on COLO 205 colon; 18.3 µM in the assay with HOP-92 NSCLC; 17.8 µM with KM12 colon; 23.3 µM with M14 melanoma; over 37.8 µM with MCF7 breast. In addition, the TGI with NCI-H460 lung is 14.3 µM; with NCI-H522 lung, over 25.4 µM; in the assay with T-47D breast, 37.7 µM; in the assay on UACC-257 melanoma, 26.9 µM.

With `COc1ccccc1N1CCN(CCc2c[nH]c3cc4c(cc23)OCO4)CC1`, the GI50 was 29.8 µM with CCRF-CEM leukemia; 15.3 µM in the assay on COLO 205 colon; 14.3 µM in the assay on HOP-92 NSCLC; 27.3 µM in the assay with KM12 colon; 11.3 µM with M14 melanoma; 33.3 µM in the assay on MCF7 breast. In addition, the GI50 in the assay on NCI-H460 lung was 15.5 µM; in the assay on NCI-H522 lung, 44.2 µM; with T-47D breast, 19.8 µM; in the assay on UACC-257 melanoma, 26.5 µM. The TGI in the assay on CCRF-CEM leukemia was over 100 µM; in the assay with COLO 205 colon, 34.7 µM; with HOP-92 NSCLC it was over 100 µM; in the assay with KM12 colon, over 100 µM; in the assay with M14 melanoma it was 40.7 µM; in the assay on MCF7 breast, over 100 µM. The TGI was over 100 µM with NCI-H460 lung, over 100 µM in the assay with NCI-H522 lung, 77.3 µM in the assay on T-47D breast and 88.9 µM in the assay with UACC-257 melanoma.
